Reference: US20230055237A1, “COMPOUNDS AND METHODS FOR THE TREATMENT OF CYSTIC FIBROSIS” (Flatley Discovery Lab, LLC, priority 2019, published 2023)

Molecular target: T1, CFTR (Homo sapiens, UniProt P13569, DEL508-508)
T1 construct: Primary CF airway epithelial cells were obtained from the UNC Cystic Fibrosis Tissue Procurement and Cell Culture Core; host or cells: primary CF airway epithelial cells, differentiated at the air-liquid interface
Assay: Equivalent current assay in primary CF airway epithelial cells (NAUC, combination with 1st site corrector FDL169 or VX-809)
Assay type: cell-based
Conditions: 37° C., 24 h; for Nauc @ 10 μM: test compound 10 μM in combination with 1st site corrector VX-809 (3 μM)
Method: Primary CF airway epithelial cells were obtained from the UNC Cystic Fibrosis Tissue Procurement and Cell Culture Core. The cells are grown at 37° C. in a Heracell 150i incubator using growth media (BEGM, Fischer). […] Two days before the Ussing assay the mucus on the apical surface of the cells was aspirated after incubating with 200 μL of differentiation media for at least thirty (30) minutes. One day before the Ussing assay test compounds were added to the basolateral surface of the cells at various test concentrations dissolved in DMSO. Duplicate wells were prepared giving a n=3 or n=4 protocol.
Cells were treated for 24 hours with various combinations and concentrations of the test articles, reference standard (3 μM VX809 or 3 μM FDL169, positive control). Compounds stock solutions were prepared in DMSO and diluted 1/1000 into ALI media to their final assay concentration. Cells were treated with combination solutions (2 mL of each dilution) and incubated at 37° C. for 24 h.
For the equivalent current assay, cells on four Transwell (24-well) plates were treated. Each Transwell plate was filled with 200 μl of HBS on the apical surface and 2 ml on the basolateral surface. Plates were placed horizontally in a heated mount at 37° C., and equilibrated for several minutes. Resting current was measured for 15 min and then blocked by the apical addition of 5 μM benzamil. After 20 min, 10 μM forskolin and 1 μM VX770 were added to both the apical and basolateral side to stimulate CFTR. An increase in chloride current is seen as an upward deflection of the trace.
The raw data, current vs. time for the Ussing chamber (sampling interval: 10 s) and voltage vs. time and resistance vs. time for the equivalent current assay (sampling interval: 5 minutes) were transferred to Excel (Microsoft Office Professional, version 14.0.7106.5003) for analysis. […] This average is equivalent to the sum of the average forskolin activated and the average VX770-potentiated currents. The average current measured in vehicle (0.1% DMSO) treated cells, Iv, was subtracted from the current for the test article, ITA, or from the corrector reference standard VX809 (3 uM ISTD). For replicate measurements, the average vehicle subtracted response for the test article, was normalized to the average vehicle subtracted inhibitor response of the reference corrector VX809 (3 μM).
A second endpoint, for the equivalent current assay, evaluated was NAUC, the normalized area under the curve (AUC) measuring the response after addition of forskolin and VX770 to the time point right before the addition of the CFTR inhibitor. The AUC is effectively the average response multiplied by the duration of the response.
NAUCTA=[AUCTA−AUCV,ave]/[AUCVx809r,ave−AUCV,ave] (Equation 2).
Experiments were run with a minimum of n=4 replicates per concentration. Since the distribution for the ratio of two normal distributions is a Cauchy distribution, the median value must be used for the average and the average deviation must be used for the error of all normalized data.
E=Emin+(Emax−Emin)/(1+10^((LogEC5OS)*nH)) (Equation 3)

[1] = test compound 3 μM in combination with 1st site corrector VX-809 (3 μM)

T1 sequence (P13569 with tags, fused parts or gaps DEL508-508): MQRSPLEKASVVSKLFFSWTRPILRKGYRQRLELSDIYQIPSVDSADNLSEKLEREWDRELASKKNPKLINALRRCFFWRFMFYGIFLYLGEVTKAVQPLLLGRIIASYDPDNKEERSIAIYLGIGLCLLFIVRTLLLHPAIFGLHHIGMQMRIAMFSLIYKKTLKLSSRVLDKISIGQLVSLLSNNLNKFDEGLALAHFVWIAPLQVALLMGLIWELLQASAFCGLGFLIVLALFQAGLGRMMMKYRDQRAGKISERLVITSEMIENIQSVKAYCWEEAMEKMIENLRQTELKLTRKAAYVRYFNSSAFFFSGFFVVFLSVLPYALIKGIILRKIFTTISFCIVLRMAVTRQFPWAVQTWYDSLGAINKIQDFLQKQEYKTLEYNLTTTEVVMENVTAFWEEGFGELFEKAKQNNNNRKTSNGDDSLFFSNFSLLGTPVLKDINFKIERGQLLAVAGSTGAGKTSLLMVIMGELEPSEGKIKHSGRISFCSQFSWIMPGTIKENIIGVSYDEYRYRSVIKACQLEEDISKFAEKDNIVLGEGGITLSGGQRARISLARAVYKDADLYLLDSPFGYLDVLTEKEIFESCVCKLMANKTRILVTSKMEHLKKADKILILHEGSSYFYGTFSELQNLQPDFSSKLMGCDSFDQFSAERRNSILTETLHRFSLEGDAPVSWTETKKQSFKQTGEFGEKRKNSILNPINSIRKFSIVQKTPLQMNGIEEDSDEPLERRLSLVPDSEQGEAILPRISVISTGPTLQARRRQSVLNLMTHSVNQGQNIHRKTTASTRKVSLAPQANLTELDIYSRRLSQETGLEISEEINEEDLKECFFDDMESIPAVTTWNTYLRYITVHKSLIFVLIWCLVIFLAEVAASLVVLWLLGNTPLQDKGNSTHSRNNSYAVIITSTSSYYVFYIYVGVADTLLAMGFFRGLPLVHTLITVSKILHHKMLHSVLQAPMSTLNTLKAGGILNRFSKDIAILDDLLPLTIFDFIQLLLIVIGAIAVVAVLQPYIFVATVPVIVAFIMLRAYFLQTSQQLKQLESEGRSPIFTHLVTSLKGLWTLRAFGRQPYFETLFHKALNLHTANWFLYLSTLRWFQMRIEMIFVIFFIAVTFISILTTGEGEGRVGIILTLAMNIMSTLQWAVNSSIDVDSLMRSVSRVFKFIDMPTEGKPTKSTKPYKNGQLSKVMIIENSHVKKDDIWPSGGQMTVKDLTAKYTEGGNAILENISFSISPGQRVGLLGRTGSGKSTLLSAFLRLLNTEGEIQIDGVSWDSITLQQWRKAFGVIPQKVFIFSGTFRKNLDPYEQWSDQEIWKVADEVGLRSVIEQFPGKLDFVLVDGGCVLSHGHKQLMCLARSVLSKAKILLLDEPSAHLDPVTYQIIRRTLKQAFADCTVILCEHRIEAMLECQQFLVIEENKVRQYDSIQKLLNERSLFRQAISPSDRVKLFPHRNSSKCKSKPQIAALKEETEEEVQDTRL

| Compound | Nauc @ 3 μM [1] | Nauc @ 10 μM | other results |
| --- | --- | --- | --- |
| CC(C)(C)c1cccc(CCNC(=O)C2C3CC(F)(F)CN3C3(C(=O)Nc4c(Cl)cc(Cl)cc43)C2C(=O)O)c1 (racemic) [Example 44, (1′R,2′S,3R,7a′R)-1′-((3-(tert-butyl)phenethyl)carbamoyl)-5,7-dichloro-6′,6′-difluoro-2-oxo-1′,2′,5′,6′,7′,7a′-hexahydrospiro[indoline-3,3′-pyrrolizine]-2′-carboxylic acid] | +++ (NAUC “+++” refers to an observed NAUC>170% of positive control) | +++ (NAUC “+++” refers to an observed NAUC>170% of positive control) |  |
| CN(C(=O)[C@H]1[C@H]2CC(F)(F)CN2[C@]2(C(=O)Nc3c2ccc(Cl)c3Cl)[C@H]1C(=O)O)c1cc(Cl)cc(Cl)c1 (racemic) [Example 100, rac-(1′R,2′S,7a′R)-6,7-dichloro-1-((3,5-dichlorophenyl)(methyl)carbamoyl)-6′,6′-difluoro-2-oxo-1′,2′,5′,6′,7′,7a′-hexahydrospiro[indoline-3,3′-pyrrolizine]-2′-carboxylic acid] | + (NAUC “+” refers to an observed NAUC <140% of positive control) | + (NAUC “+” refers to an observed NAUC <140% of positive control) | Nauc @ 1 μM (test compound 1 μM in combination with 1st site corrector VX-809 (3 μM)): + (NAUC “+” refers to an observed NAUC <140% of positive control) |
| CN(C(=O)[C@H]1[C@H]2CCCCN2[C@]2(C(=O)Nc3c(Cl)cc(Cl)cc32)[C@H]1C(=O)O)c1cc(Cl)cc(Cl)c1 (racemic) [Example 219, rac-(1′R,2′S,3R,8a′R)-5,7-dichloro-1′-((3,5-dichlorophenyl)(methyl)carbamoyl)-2-oxo-1′,5′,6′,7′,8′,8a′-hexahydro-2′H-spiro[indoline-3,3′-indolizine]-2′-carboxylic acid] |  |  | Nauc @ 1 μM (test compound 1 μM in combination with 1st site corrector FDL169 (3 μM)): ++ (NAUC “++” refers to an observed NAUC 170-140% of positive control); Nauc @ 3 μM (test compound 3 μM in combination with 1st site corrector FDL169 (3 μM)): + (NAUC “+” refers to an observed NAUC <140% of positive control) |
| CN(C(=O)[C@H]1[C@H]2CC(F)(F)CN2C2(C(=O)Nc3c(Cl)cc(Cl)cc32)[C@H]1C(=O)NS(=O)(=O)c1ccccc1)c1cc(Cl)cc(Cl)c1 (mixture of isomers) [Example 230, rel-(1′R,2′S,3R,7a′R)-5,7-dichloro-N1′-(3,5-dichlorophenyl)-6′,6′-difluoro-N1′-methyl-2-oxo-N2′-(phenylsulfonyl)-1′,2′,5′,6′,7′,7a′-hexahydrospiro[indoline-3,3′-pyrrolizine]-1′,2′-dicarboxamide] |  | + (NAUC “+” refers to an observed NAUC <140% of positive control) |  |
| Cc1oc(=O)oc1COC(=O)[C@H]1[C@@H](C(=O)N(C)c2cc(Cl)cc(Cl)c2)[C@H]2CC(F)(F)CN2C12C(=O)Nc1c(Cl)cc(Cl)cc12 (mixture of isomers) [Example 250.3a, rac-(5-methyl-2-oxo-1,3-dioxo1-4-yl)methyl (1′R,2′S,3R,7a′R)-5,7-dichloro-1-((3,5-dichlorophenyl)(methyl)carbamoyl)-6′,6′-difluoro-2-oxo-1′,2′,5′,6′,7′,7a′-hexahydrospiro[indoline-3,3′-pyrrolizine]-2′-carboxylate] |  | +++ (NAUC “+++” refers to an observed NAUC>170% of positive control) |  |
| Cc1oc(=O)oc1COC(=O)[C@H]1[C@@H](C(=O)N(C)c2cc(Cl)cc(Cl)c2)[C@H]2CC(F)(F)CN2C12C(=O)N(Cc1oc(=O)oc1C)c1c(Cl)cc(Cl)cc12 (mixture of isomers) [Example 250.3b, rac-(5-methyl-2-oxo-1,3-dioxo1-4-yl)methyl (1′R,2′S,3R,7a′R)-5,7-dichloro-1′-((3,5-dichlorophenyl)(methyl)carbamoyl)-6′,6′-difluoro-1-45-methyl-2-oxo-1,3-dioxol-4-yl)methyl)-2-oxo-1′,2′,5′,6′,7′,7a′-hexahydrospiro[indoline-3,3′-pyrrolizine]-2′-carboxylate] |  | + (NAUC “+” refers to an observed NAUC <140% of positive control) |  |
